From paper PMC10056986 (Pharmaceuticals, 2023) come the findings set out here.

For one data set, the system named is EV71 Shenzhen/120F1/09. The data set can be described thus: microbe, parasite or virus in culture. The class given is cell-based, human enterovirus 71. The settings on record: Enterovirus A, EV71, RD, read-out: EC50 for Virus.
A short description of data set [1]: Cytotoxicity in parallel to antiviral assay. The settings on record: human.
For another data set, the system named is HSV-1 GHSV-UL46. Briefly: microbe, parasite or virus in culture. The class given is cell-based, herpes simplex virus type 1. The settings on record: Human alphaherpesvirus 1, Vero C1008, read-out: EC50 for Virus.
Data set [2] is described as follows: Cytotoxicity in parallel to antiviral assay. The settings on record: African green monkey.
The test system of a further data set is HBV. The data set can be described thus: microbe, parasite or virus in culture. The class given is cell-based. The settings on record: Hepatitis B virus, HepG2.2.15, read-out: EC50 for Virus.
The nature of data set [3]: in vitro. The settings on record: human.
The test system of data set [4] is A/Guangzhou/39715/2014 (H5N6). The data set can be described thus: microbe, parasite or virus in culture. The class given is cell-based, avian influenza virus. The settings on record: unidentified influenza virus, H5N6, MDCK, read-out: IC50 (mean ± SD).
Data set [5] concerns influenza A virus WSN/33 (H1N1). Also on record: species or system BALB/c mice. The settings on record: mouse, in vivo.
For data set [6], the system named is A/Qingyuan/GIRD01/2017 (H7N9). Briefly: microbe, parasite or virus in culture. The class given is cell-based, avian influenza virus. The settings on record: Influenza A virus, H7N9, MDCK, read-out: IC50 (mean ± SD).
The test system of data set [7] is Influenza virus A/WS/33 (H1N1). The data set can be described thus: microbe, parasite or virus in culture. The class given is cell-based. The settings on record: H1N1, MDCK, read-out: EC50 (mean ± SD).
Data set [8] deals with Influenza virus A/WSN/33 (H1N1). Briefly: microbe, parasite or virus in culture. The class given is cell-based. The settings on record: MDCK, read-out: EC50 (mean ± SD).
For data set [9], the system named is Influenza virus A/Mal/302/54 (H1N1). Briefly: microbe, parasite or virus in culture. The class given is cell-based. The settings on record: H1N1, MDCK, read-out: EC50 (mean ± SD).
A further data set has as its system A/PR/8/34 (H1N1). Also on record: species or system BALB/c mice. The settings on record: mouse, in vivo.
Data set [10] relates to Influenza virus A/Weiss/43(H1N1). Briefly: microbe, parasite or virus in culture. The class given is cell-based. The settings on record: H1N1, MDCK, read-out: EC50 (mean ± SD).
For data set [11], the system named is Influenza virus A/PR/8/34 (H1N1). Briefly: microbe, parasite or virus in culture. The settings on record: H1N1|PR/8, MDCK, read-out: EC50 (mean ± SD). The class given is cell-based.
The subject of another data set is A/Anhui/01/2013 (H7N9). Briefly: microbe, parasite or virus in culture. The class given is cell-based, avian influenza virus. The settings on record: Influenza A virus, H7N9, MDCK, read-out: IC50 (mean ± SD).
A further data set has as its system MDCK cells. Briefly: Cytotoxicity in MDCK cells without viral infection. The settings on record: MDCK, 37 °C.
The nature of data set [12]: Cytotoxicity in MDCK cells without viral infection. The settings on record: dog.
A further data set deals with Influenza virus B/Lee/40. Briefly: microbe, parasite or virus in culture. The class given is cell-based. The settings on record: MDCK, read-out: EC50 (mean ± SD).
In data set [13] the test system is influenza A virus WSN/33 (H1N1). Also noted: species or system BALB/c mice. The settings on record: mouse, in vivo. The source holds these as a separate data set.
The test system of data set [14] is influenza A virus/California/07/2009 (H1N1). Also on record: species or system ferrets. The settings on record: in vivo, po, 25 mg/kg/day.
Another data set deals with HRV 1B. Briefly: microbe, parasite or virus in culture. The class given is cell-based. The settings on record: Human rhinovirus sp., H1-HeLa, read-out: EC50 for Virus.
Data set [15] can be described thus: Cytotoxicity in parallel to antiviral assay. The settings on record: human. The source holds these as a separate data set.
The target in another data set is FGFR1 (Homo sapiens, UniProt P11362). Briefly: biochemical.
A further data set concerns the target JNK1 (Homo sapiens, UniProt P45983). The data set can be described thus: biochemical.
The next data set addresses p38 alpha (Homo sapiens, UniProt Q16539). The data set can be described thus: biochemical.
Another data set concerns the target TNIK (Homo sapiens, UniProt Q9UKE5). The data set can be described thus: biochemical.
Another data set concerns the target KDR (Homo sapiens, UniProt P35968). Briefly: biochemical.
For another data set, the target named is MINK (Homo sapiens, UniProt Q8N4C8). Briefly: biochemical.
The target of the next data set is ABL1 (Homo sapiens, UniProt P00519). Briefly: biochemical.
A further data set addresses DYRK3 (Homo sapiens, UniProt O43781). Briefly: biochemical.
The test system of data set [16] is Influenza virus A/Hong Kong/8/68 (H3N2). The data set can be described thus: microbe, parasite or virus in culture. The class given is cell-based. The settings on record: unidentified influenza virus, H3N2, MDCK, read-out: EC50 (mean ± SD).
The target of the next data set is CAMK2 alpha (Homo sapiens, UniProt Q9UQM7). The data set can be described thus: biochemical.
A short description of data set [17]: in vitro. The settings on record: dog, CC50 (mean ± SD).
A further data set has as its target GSK3 beta (Homo sapiens, UniProt P49841). Briefly: biochemical.
The target of a further data set is TAOK2 (Homo sapiens, UniProt Q9UL54). The data set can be described thus: biochemical.
Another data set has as its target PKA (Homo sapiens, UniProt P17612). Briefly: biochemical.
The next data set deals with MST4 (Homo sapiens, UniProt Q9P289). The data set can be described thus: biochemical.
The target in another data set is CDK2 (Homo sapiens, UniProt P24941). The data set can be described thus: biochemical.
Another data set has as its target CK1 alpha (Homo sapiens, UniProt P48729). Briefly: biochemical.
For another data set, the target named is EPHA2 (Homo sapiens, UniProt P29317). Briefly: biochemical.
The test system of data set [18] is Influenza virus A/California/07/2009 (H1N1)pdm09. Briefly: microbe, parasite or virus in culture. The class given is cell-based. The settings on record: H1N1, MDCK, read-out: EC50 (mean ± SD).
Data set [19] deals with influenza A virus WSN/33 (H1N1). Also on record: species or system BALB/c mice. The settings on record: mouse, in vivo. The source holds these as a separate data set.
The next data set deals with MAP4K4 (Homo sapiens, UniProt O95819). Briefly: biochemical.
In a further data set the target is PDK1 (Homo sapiens, UniProt O15530). Briefly: biochemical.
The target of another data set is MAPKAPK2 (Homo sapiens, UniProt P49137). The data set can be described thus: biochemical.
Another data set has as its target Aurora A (Homo sapiens, UniProt O14965). Briefly: biochemical.
The target of a further data set is SRC (Homo sapiens, UniProt P12931). Briefly: biochemical.
The next data set concerns the target LCK (Homo sapiens, UniProt P06239). The data set can be described thus: biochemical.
For data set [20], the target named is influenza virus polymerase (PB1, PB2, NP, PA from A/California/04/2009 (H1N1) pdm09) (Influenza A virus, UniProt C3W5R8+C3W5R9). The class given is cell-based.
In data set [21] the test system is Influenza virus A/California/2/2014 (H3N2). The data set can be described thus: microbe, parasite or virus in culture. The settings on record: H3N2, MDCK, read-out: EC50 (mean ± SD). The class given is cell-based.
The next data set deals with JAK2 (Homo sapiens, UniProt O60674). Briefly: biochemical.
The next data set addresses CHK1 (Homo sapiens, UniProt O14757). Briefly: biochemical.

Where two headings read alike, the source gives them in different places.

The EC50 is the concentration at which the effect is half-maximal. As a reminder, the IC50 is the concentration that inhibits the measured activity by half.

Chain of KDR (P35968 20-1356): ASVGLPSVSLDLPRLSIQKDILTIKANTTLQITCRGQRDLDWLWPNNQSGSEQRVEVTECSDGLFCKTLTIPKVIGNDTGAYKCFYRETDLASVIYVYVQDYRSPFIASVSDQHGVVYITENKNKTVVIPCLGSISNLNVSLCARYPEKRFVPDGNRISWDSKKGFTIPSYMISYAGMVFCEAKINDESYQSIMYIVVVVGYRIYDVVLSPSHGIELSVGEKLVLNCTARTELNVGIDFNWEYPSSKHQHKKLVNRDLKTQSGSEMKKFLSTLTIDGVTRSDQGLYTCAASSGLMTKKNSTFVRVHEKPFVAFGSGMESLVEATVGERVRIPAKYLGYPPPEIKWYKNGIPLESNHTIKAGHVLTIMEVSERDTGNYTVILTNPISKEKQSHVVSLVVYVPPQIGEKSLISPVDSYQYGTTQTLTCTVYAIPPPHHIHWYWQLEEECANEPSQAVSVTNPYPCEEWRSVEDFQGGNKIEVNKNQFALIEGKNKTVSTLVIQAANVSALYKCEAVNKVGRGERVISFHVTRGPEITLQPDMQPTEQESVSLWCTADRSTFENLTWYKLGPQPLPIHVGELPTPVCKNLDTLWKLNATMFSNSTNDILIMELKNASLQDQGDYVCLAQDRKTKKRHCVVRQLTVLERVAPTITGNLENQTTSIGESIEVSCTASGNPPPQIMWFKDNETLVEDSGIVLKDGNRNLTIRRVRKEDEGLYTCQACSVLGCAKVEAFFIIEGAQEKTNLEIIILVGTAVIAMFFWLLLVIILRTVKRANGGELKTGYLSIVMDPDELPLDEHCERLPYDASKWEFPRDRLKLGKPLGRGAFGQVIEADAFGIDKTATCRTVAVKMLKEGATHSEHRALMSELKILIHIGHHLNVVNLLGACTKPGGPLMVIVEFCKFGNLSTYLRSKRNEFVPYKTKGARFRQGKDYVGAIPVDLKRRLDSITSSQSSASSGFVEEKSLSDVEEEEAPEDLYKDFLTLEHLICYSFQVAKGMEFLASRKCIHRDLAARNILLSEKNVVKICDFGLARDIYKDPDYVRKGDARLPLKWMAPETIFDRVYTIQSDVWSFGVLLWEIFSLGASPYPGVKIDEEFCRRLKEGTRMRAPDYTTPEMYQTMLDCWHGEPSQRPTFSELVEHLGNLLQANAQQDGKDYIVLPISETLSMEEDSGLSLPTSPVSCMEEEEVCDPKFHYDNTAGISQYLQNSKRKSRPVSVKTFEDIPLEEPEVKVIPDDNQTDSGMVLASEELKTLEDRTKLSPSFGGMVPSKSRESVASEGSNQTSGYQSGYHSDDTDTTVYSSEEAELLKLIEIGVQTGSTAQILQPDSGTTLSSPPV
Chain of PDK1 (O15530 whole entry): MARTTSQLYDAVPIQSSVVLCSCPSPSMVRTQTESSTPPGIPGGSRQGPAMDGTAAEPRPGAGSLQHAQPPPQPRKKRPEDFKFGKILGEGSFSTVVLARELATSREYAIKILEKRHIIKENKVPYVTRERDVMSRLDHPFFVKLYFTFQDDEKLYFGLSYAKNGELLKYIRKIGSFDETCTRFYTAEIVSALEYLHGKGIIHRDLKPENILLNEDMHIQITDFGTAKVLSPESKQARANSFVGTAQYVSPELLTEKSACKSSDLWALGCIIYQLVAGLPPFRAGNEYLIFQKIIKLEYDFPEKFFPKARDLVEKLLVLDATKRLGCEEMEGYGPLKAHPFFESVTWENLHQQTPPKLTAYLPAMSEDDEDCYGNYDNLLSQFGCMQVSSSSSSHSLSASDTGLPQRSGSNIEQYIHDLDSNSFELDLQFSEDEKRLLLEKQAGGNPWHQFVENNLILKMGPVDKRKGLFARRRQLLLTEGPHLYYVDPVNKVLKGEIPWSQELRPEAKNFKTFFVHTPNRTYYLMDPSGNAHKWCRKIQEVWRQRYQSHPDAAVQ
Chain of Aurora A (O14965 whole entry): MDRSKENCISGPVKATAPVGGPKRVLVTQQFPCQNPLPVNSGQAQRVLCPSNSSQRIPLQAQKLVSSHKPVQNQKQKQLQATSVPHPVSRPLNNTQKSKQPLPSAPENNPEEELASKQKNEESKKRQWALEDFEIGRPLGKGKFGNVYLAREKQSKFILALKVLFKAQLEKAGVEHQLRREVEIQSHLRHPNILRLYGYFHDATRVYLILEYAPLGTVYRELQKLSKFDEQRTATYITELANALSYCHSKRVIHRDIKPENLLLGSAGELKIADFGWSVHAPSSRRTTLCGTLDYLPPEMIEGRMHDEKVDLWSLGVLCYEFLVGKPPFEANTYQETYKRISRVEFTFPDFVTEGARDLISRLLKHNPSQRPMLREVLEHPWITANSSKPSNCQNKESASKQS
Chain of MINK (Q8N4C8 whole entry): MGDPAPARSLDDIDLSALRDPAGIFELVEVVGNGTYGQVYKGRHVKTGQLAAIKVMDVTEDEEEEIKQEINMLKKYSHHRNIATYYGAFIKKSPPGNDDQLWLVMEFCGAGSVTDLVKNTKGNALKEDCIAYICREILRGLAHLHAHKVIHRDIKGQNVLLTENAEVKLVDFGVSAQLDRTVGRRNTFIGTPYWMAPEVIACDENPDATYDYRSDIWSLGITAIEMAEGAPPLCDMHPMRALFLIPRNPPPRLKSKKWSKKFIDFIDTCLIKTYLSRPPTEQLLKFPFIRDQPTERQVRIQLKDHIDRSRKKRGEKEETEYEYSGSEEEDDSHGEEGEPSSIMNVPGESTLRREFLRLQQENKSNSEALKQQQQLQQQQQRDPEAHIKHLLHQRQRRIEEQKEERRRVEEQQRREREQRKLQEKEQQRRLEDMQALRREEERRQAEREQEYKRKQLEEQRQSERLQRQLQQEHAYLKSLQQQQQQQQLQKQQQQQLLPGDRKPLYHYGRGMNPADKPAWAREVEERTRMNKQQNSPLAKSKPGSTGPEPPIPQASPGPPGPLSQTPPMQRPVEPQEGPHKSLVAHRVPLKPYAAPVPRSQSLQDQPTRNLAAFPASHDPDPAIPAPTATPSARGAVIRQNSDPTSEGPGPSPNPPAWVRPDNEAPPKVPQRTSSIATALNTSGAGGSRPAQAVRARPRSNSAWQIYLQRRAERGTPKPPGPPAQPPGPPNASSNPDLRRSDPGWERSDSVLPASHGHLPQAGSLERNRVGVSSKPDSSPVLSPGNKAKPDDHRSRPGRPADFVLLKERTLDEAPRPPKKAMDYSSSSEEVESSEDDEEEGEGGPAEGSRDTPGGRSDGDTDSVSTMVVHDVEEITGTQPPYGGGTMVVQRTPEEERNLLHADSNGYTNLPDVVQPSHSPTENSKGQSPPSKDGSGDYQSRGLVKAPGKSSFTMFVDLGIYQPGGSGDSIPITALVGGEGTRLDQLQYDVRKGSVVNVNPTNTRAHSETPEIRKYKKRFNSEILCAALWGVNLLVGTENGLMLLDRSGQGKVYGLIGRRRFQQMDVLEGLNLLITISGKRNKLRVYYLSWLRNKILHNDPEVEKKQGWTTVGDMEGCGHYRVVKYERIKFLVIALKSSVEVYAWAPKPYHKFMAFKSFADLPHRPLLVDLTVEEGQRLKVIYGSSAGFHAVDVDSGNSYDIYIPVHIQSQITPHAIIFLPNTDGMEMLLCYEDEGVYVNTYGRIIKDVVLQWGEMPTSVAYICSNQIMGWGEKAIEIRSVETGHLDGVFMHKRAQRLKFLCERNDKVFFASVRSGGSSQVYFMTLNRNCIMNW
Chain of CHK1 (O14757 whole entry): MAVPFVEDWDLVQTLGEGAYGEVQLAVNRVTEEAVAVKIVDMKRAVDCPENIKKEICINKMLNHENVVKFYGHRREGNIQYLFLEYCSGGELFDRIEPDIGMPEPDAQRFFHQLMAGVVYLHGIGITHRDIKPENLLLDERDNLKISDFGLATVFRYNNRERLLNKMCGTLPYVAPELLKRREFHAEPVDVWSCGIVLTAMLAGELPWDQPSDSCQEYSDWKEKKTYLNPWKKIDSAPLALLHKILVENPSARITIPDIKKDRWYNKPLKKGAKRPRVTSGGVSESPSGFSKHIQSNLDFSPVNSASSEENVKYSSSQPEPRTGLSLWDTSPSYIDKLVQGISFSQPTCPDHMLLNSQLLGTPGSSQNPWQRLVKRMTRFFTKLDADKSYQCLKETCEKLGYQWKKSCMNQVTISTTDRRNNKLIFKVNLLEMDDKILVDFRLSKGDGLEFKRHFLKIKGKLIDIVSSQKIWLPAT
Chain of LCK (P06239 whole entry): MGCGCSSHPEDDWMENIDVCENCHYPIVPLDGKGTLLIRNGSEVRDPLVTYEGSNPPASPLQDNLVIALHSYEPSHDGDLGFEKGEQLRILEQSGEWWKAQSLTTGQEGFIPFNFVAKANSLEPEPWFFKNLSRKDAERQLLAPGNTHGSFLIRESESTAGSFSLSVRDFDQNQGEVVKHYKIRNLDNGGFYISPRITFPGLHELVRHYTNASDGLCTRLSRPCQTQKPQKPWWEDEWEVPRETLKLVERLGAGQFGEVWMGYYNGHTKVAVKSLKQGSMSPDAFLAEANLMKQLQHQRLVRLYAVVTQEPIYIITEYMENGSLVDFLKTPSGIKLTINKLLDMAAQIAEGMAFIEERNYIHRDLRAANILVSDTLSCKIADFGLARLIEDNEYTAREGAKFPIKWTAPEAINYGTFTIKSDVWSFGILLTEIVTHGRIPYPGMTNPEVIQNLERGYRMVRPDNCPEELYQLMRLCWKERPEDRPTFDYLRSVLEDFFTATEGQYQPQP
Chain of JNK1 (P45983 whole entry): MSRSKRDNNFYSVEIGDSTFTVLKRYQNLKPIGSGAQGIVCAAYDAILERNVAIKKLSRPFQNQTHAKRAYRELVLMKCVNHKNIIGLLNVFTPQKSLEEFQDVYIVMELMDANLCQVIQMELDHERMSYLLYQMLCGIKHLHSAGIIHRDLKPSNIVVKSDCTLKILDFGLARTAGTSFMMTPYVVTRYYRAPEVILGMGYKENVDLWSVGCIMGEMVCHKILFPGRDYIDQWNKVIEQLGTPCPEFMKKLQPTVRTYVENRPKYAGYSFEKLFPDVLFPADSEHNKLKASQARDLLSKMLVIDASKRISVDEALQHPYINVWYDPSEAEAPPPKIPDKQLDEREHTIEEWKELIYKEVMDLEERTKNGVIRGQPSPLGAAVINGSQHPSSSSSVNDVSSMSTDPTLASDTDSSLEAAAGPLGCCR

Consider `CCOC(=O)/C=C/[C@H](C[C@@H]1CCNC1=O)NC(=O)[C@@H](CC(=O)[C@@H](NC(=O)c1cc(C)on1)C(C)C)Cc1ccc(F)cc1` [AG7088, reference compound], for which, in the data set with EV71 Shenzhen/120F1/09, the EC50 was determined as 0.012 µM. Further, in data set [1], the CC50 was above 1 µM.

Consider `Nc1nc2c(ncn2COCCO)c(=O)[nH]1` [Acyclovir, reference compound], for which, in the data set on HSV-1 GHSV-UL46, the EC50 is 0.655 µM. The same compound registered a CC50 in data set [2] above 10 µM.

On to `C=C1[C@H](CO)[C@@H](O)C[C@@H]1n1cnc2c(=O)[nH]c(N)nc21` [Entecavir, reference compound], for which, in the data set with HBV, the EC50 was determined as 0.000338 µM. In the data set “in vitro [3]”, the CC50 is above 0.02 µM.

For the compound `CCOC(=O)C1=C[C@@H](OC(CC)CC)[C@H](NC(C)=O)[C@@H](N)C1` [Oseltamivir], the IC50 in data set [4] was determined as 1650 µM; in data set [6], 1690 µM; with A/Anhui/01/2013 (H7N9), 175 µM. Moreover, the “animals died (of n = 8)” value in [5] is given as “five”. Moreover, in data set [5], the “day on which body weight of surviving mice began to recover” value amounted to 9 days. Also, the “day on which weight of surviving mice increased gradually” value in data set [5] is 9th. Also, the “mice died (of n = 8)” value in [5] is recorded as “three”. In addition, the EC50 in data set [7] was found to be 2.43 ± 1.24 µM; in data set [8] it was 10.1 ± 9.82 µM; in data set [9] it was 1.34 ± 1.92 µM; in data set [10] it was 5.62 ± 2.78 µM; in data set [11] it was 4.89 ± 7.37 µM; with Influenza virus B/Lee/40 it was 2.94 ± 3.62 µM. Besides, in the data set on A/PR/8/34 (H1N1), the mortality rate was found to be 90%. Further, the CC50 (with MDCK cells; in data set [12]) was above 100 µM throughout. Besides, in [13], the “body weight of mice” value is listed as “did not significantly reduce the body weight”. For the same compound, in data set [13], the “survival rate vs vehicle” value is “could improve the survival rate”. The “time of death relative to vehicle group” value in data set [13] is listed as “died after 7 h—earlier than in the vehicle group”. Further, the “viral load in nasal lavage fluid vs vehicle” value in data set [14] is recorded as “decreased significantly”.

Regarding `Cc1cc(CCCOc2c(C)cc(-c3noc(C(F)(F)F)n3)cc2C)on1` [Pleconaril, reference compound], the EC50 in the data set with HRV 1B was determined as 0.028 µM. Also, in data set [15], the CC50 is above 5 µM.

Take `O=C(O)[C@H]1C2CCC(CC2)[C@@H]1Nc1nc(-c2c[nH]c3ncc(F)cc23)ncc1F` [VX-787, reference compound]: the IC50 against FGFR1 is above 10 µM; against JNK1, above 10 µM; against p38 alpha, above 10 µM; in data set [4], 9.18e-05 ± 1.45e-05 µM; on TNIK it was above 3.33 µM; on KDR it was above 10 µM. For the same compound, the IC50 in [6] was 0.00192 ± 0.000492 µM; on MINK, above 3.33 µM; against ABL1 it was above 10 µM; at DYRK3, above 10 µM; against CAMK2 alpha, above 10 µM; at GSK3 beta, above 3.33 µM. The IC50 at TAOK2, at PKA, on MST4, against CDK2, at CK1 alpha and on EPHA2 was above 10 µM throughout. The IC50 is 1.78 µM against MAP4K4; 0.000834 ± 0.000204 µM in the data set with A/Anhui/01/2013 (H7N9); above 10 µM against PDK1; above 10 µM against MAPKAPK2; 1.11 µM against Aurora A; above 10 µM against SRC. The IC50 against LCK is above 10 µM; in data set [20] (read-out: IC50, Mean ± SEM) it was 0.00145 ± 0.00034 µM; in data set [20] (read-out: IC50, experiment 1) it was 0.00128 µM; in data set [20] (read-out: IC50, experiment 2), 0.00123 µM; in data set [20] (read-out: IC50, experiment 3), 0.00184 µM; at JAK2 it was above 10 µM. This compound returned an IC50 against CHK1 above 10 µM. In data set [5], the “animals died (of n = 8)” value is on record as “four”. Besides, the “day on which body weight of surviving mice began to recover” value in [5] was determined as 8 days. In addition, the “day on which weight of surviving mice increased gradually” value in data set [5] came out at 8th. Also, the “mice died (of n = 8)” value in data set [5] is given as “no mice died”. Besides, the survival rate in data set [5] worked out at 100%. Besides, the EC50 in data set [16] was 0.000162 ± 3.4e-05 µM; in data set [7], 0.000206 ± 6.1e-05 µM; in data set [8], 0.000315 ± 7e-05 µM; in data set [9], 0.000295 ± 0.000111 µM; in data set [18], 0.00024 ± 0.00014 µM; in [10], 0.000255 ± 5.5e-05 µM. Moreover, the figures for the EC50 (in data set [11]; in the data set with Influenza virus B/Lee/40; in data set [21]) were 0.00076 ± 0.000355 µM, above 0.01 µM and 0.00015 ± 2e-05 µM, respectively. The CC50 in “in vitro [17]” was found to be 21.1 ± 9.76 µM. In addition, the “day on which mice began to regain body weight” value in data set [19] worked out at 4 days. In addition, the mortality rate in the data set with A/PR/8/34 (H1N1) was 70%. Moreover, the “body weight of mice” value in [13] is “did not significantly reduce the body weight”. Also, the “survival rate vs vehicle” value in [13] is recorded as “could improve the survival rate”. In data set [13], the “time of death relative to vehicle group” value is “died after 7 h—earlier than in the vehicle group”. Besides, in [14], the “viral load in nasal lavage fluid vs vehicle” value is given as “decreased but showed no statistical significance”.
